Measurements as given in patent US9532990B2 (Zhejiang DTRM Biopharma Co. Ltd., priority 2014, dated 2017).
Like-named read-outs stand apart in the source and are kept apart here.

Biological target: BTK wild type (Homo sapiens (Human), UniProt Q06187)
Experiment: Inhibition assay of BTK kinase activity (HTRF)
Assay type: biochemical
Protocol: Inhibition Assay of BTK Kinase Activity:
The enzyme reaction mixture of BTK wild type standard HTRF assay contained 1 nM BTK wild type, 1 μM biotin-TK1 peptide, and 30 μM ATP in a buffer. The enzyme reaction were carried out at room temperature for 60 minutes. […] The plates were incubated at room temperature for 60 minutes and then read in the Envision plate reader.

[1] = all compounds with IC50 of less 10 nM, read-out: IC50 (BTK)

BTK wild type, sequence (Q06187 whole entry): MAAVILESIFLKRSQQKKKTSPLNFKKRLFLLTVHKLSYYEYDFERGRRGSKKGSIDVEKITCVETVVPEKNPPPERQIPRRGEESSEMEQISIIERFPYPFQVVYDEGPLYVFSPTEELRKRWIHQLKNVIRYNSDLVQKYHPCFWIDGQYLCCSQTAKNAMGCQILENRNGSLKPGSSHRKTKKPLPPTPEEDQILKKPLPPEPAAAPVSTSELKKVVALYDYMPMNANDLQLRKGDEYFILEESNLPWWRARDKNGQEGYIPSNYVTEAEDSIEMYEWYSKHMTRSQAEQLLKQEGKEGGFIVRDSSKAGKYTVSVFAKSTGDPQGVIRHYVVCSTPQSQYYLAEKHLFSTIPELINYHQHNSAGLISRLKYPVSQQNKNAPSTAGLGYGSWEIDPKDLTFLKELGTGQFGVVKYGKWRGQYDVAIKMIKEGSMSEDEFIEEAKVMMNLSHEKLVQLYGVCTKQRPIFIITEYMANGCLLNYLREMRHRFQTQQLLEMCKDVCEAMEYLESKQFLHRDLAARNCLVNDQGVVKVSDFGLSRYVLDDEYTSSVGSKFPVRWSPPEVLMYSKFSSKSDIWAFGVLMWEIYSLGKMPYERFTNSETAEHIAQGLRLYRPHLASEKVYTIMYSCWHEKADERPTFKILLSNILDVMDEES

SMILES	IC50 (read-out: BTK IC50) [nM]	IC50 [1] [nM]
C=CC(=O)N1CCC(Cn2nc(-c3ccc(Oc4c(F)c(F)cc(F)c4F)cc3F)c3c(N)ncnc32)CC1 [Compound 30, 1-(4-((4-amino-3-(2-fluoro-4-(2,3,5,6-tetrafluorophenoxy)phenyl)-1H-pyrazolo[3,4-d]pyrimidin-1-yl)methyl)piperidin-1-yl)prop-2-en-1-one]	24	–
C=CC(=O)NC(C)C(C)n1nc(-c2ccc(Oc3c(F)c(F)cc(F)c3F)cc2F)c2c(N)ncnc21 (stereo not shown) [Compound 83, N-(3-(4-amino-3-(2-fluoro-4-(2,3,5,6-tetrafluorophenoxy)phenyl)-1H-pyrazolo[3,4-d]pyrimidin-1-yl)butan-2-yl)acrylamide]	75	–
C=CC(=O)N1CCC(n2nc(-c3ccc(Oc4cccc(F)c4)cc3F)c3c(N)ncnc32)C1 (stereo not shown) [Compound 15, 1-(3-(4-amino-3-(2-fluoro-4-(3-fluorophenoxy)phenyl)-1H-pyrazolo[3,4-d]pyrimidin-1-yl)pyrrolidin-1-yl)prop-2-en-1-one]	3	< 10
C=CC(=O)N(C)CCn1nc(-c2ccc(Oc3c(F)c(F)cc(F)c3F)cc2F)c2c(N)ncnc21 [Compound 85, N-(2-(4-amino-3-(2-fluoro-4-(2,3,5,6-tetrafluorophenoxy)phenyl)-1H-pyrazolo[3,4-d]pyrimidin-1-yl)ethyl)-N-methylacrylamide]	17	–
C=CC(=O)N1CCCC(n2nc(-c3ccc(Oc4ccccc4NS(C)(=O)=O)cc3F)c3c(N)ncnc32)C1 (stereo not shown) [Compound 19, N-(2-(4-(1-(1-acryloylpiperidin-3-yl)-4-amino-1H-pyrazolo[3,4-d]pyrimidin-3-yl)-3-fluorophenoxy)phenyl)methanesulfonamide]	67	–
Nc1ncnc2c1c(-c1ccc(Oc3c(F)c(F)cc(F)c3F)cc1F)nn2[C@H]1CCCN(C(=O)CCl)C1 [Compound 100, 1-((S)-3-(4-amino-3-(2-fluoro-4-(2,3,5,6-tetrafluorophenoxy)phenyl)-1H-pyrazolo[3,4-d]pyrimidin-1-yl)piperidin-1-yl)-2-chloroethanone]	2	< 10
C=CC(=O)N1CC[C@@H](n2nc(-c3ccc(Oc4nccc(C(F)(F)F)n4)cc3F)c3c(N)ncnc32)C1 [Compound 97, 1-((R)-3-(4-amino-3-(2-fluoro-4-(4-(trifluoromethyl)pyrimidin-2-yloxy)phenyl)-1H-pyrazolo[3,4-d]pyrimidin-1-yl)pyrrolidin-1-yl)prop-2-en-1-one]	6	–
CNC(=O)N1CCCC(n2nc(-c3ccc(Oc4c(F)c(F)cc(F)c4F)cc3F)c3c(N)ncnc32)C1 (stereo not shown) [Compound 52, 3-(4-amino-3-(2-fluoro-4-(2,3,5,6-tetrafluorophenoxy)phenyl)-1H-pyrazolo[3,4-d]pyrimidin-1-yl)-N-methylpiperidine-1-carboxamide]	60	–
C=C(C(=O)N1CCCC(n2nc(-c3ccc(Oc4c(F)c(F)cc(F)c4F)cc3F)c3c(N)ncnc32)C1)C(F)(F)F (stereo not shown) [Compound 64, 1-(3-(4-amino-3-(2-fluoro-4-(2,3,5,6-tetrafluorophenoxy)phenyl)-1H-pyrazolo[3,4-d]pyrimidin-1-yl)piperidin-1-yl)-2-(trifluoromethyl)prop-2-en-1-one]	6	–
C=C(CN1CCCC(n2nc(-c3ccc(Oc4c(F)c(F)cc(F)c4F)cc3F)c3c(N)ncnc32)C1)C(=O)OCC (stereo not shown) [Compound 68, ethyl 2-((3-(4-amino-3-(2-fluoro-4-(2,3,5,6-tetrafluorophenoxy)phenyl)-1H-pyrazolo[3,4-d]pyrimidin-1-yl)piperidin-1-yl)methyl)acrylate]	279	–
Nc1ncnc2c1c(-c1ccc(Oc3c(F)c(F)cc(F)c3F)cc1F)nn2[C@H]1CCCN(C(=O)CF)C1 [Compound 108, 1-((S)-3-(4-amino-3-(2-fluoro-4-(2,3,5,6-tetrafluorophenoxy)phenyl)-1H-pyrazolo[3,4-d]pyrimidin-1-yl)piperidin-1-yl)-2-fluoroethanone]	436	–
C=CC(=O)N[C@H]1CC[C@@H](n2nc(-c3ccc(Oc4cccc(F)c4)cc3F)c3c(N)ncnc32)C1 [Compound 17, N-((1s,3r)-3-(4-amino-3-(2-fluoro-4-(3-fluorophenoxy)phenyl)-1H-pyrazolo[3,4-d]pyrimidin-1-yl)cyclopentyl)acrylamide]	4	< 10
Nc1ncnc2c1c(-c1ccc(Oc3c(F)c(F)cc(F)c3F)cc1F)nn2[C@@H]1CCN(C(=O)NO)C1 [Compound 115, (3R)-3-(4-amino-3-(2-fluoro-4-(2,3,5,6-tetrafluorophenoxy)phenyl)-1H-pyrazolo[3,4-d]pyrimidin-1-yl)-N-hydroxypyrrolidine-1-carboxamide]	13	–
Nc1ncnc2c1c(-c1ccc(Oc3c(F)c(F)cc(F)c3F)cc1F)nn2CCN1C(=O)C=CC1=O [Compound 51, 1-(2-(4-amino-3-(2-fluoro-4-(2,3,5,6-tetrafluorophenoxy)phenyl)-1H-pyrazolo[3,4-d]pyrimidin-1-yl)ethyl)-1H-pyrrole-2,5-dione]	527	–
N#CCCN1CC[C@@H](n2nc(-c3ccc(Oc4c(F)c(F)cc(F)c4F)cc3F)c3c(N)ncnc32)C1 [Compound 114, 3-((R)-3-(4-amino-3-(2-fluoro-4-(2,3,5,6-tetrafluorophenoxy)phenyl)-1H-pyrazolo[3,4-d]pyrimidin-1-yl)pyrrolidin-1-yl)propanenitrile]	50	–
CC(=O)CC(=O)N1CCCC(n2nc(-c3ccc(Oc4c(F)c(F)cc(F)c4F)cc3F)c3c(N)ncnc32)C1 (stereo not shown) [Compound 44, 1-(3-(4-amino-3-(2-fluoro-4-(2,3,5,6-tetrafluorophenoxy)phenyl)-1H-pyrazolo[3,4-d]pyrimidin-1-yl)piperidin-1-yl)butane-1,3-dione]	374	–
Nc1ncnc2c1c(-c1ccc(Oc3c(F)c(F)cc(F)c3F)cc1F)nn2[C@@H]1CCN(C(=O)C(Cl)CO)C1 (stereo partly shown) [Compound 119]	83	–
Nc1ncnc2c1c(-c1ccc(Oc3c(F)c(F)cc(F)c3F)cc1F)nn2[C@@H]1CCN(C(=O)/C=C/c2ccccc2F)C1 [Compound 93, (E)-1-((R)-3-(4-amino-3-(2-fluoro-4-(2,3,5,6-tetrafluorophenoxy)phenyl)-1H-pyrazolo[3,4-d]pyrimidin-1-yl)pyrrolidin-1-yl)-3-(2-fluorophenyl)prop-2-en-1-one]	2650	–
CCOC(=O)/C=C/CNC(=O)N1CCCC(n2nc(-c3ccc(Oc4c(F)c(F)cc(F)c4F)cc3F)c3c(N)ncnc32)C1 (stereo not shown) [Compound 74, (E)-ethyl 4-(3-(4-amino-3-(2-fluoro-4-(2,3,5,6-tetrafluorophenoxy)phenyl)-1H-pyrazolo[3,4-d]pyrimidin-1-yl)piperidine-1-carboxamido)but-2-enoate]	3	< 10
C=CC(=O)N[C@H]1CC[C@@H](n2nc(-c3ccc(Oc4c(F)c(F)cc(F)c4F)cc3F)c3c(N)ncnc32)CC1 [Compound 22, N-((1s,4s)-4-(4-amino-3-(2-fluoro-4-(2,3,5,6-tetrafluorophenoxy)phenyl)-1H-pyrazolo[3,4-d]pyrimidin-1-yl)cyclohexyl)acrylamide]	50	–
Nc1ncnc2c1c(-c1ccc(Oc3c(F)c(F)cc(F)c3F)cc1F)nn2[C@@H]1CCN(C(=O)C(=O)C(F)(F)F)C1 [Compound 77, 1-((R)-3-(4-amino-3-(2-fluoro-4-(2,3,5,6-tetrafluorophenoxy)phenyl)-1H-pyrazolo[3,4-d]pyrimidin-1-yl)pyrrolidin-1-yl)-3,3,3-trifluoropropane-1,2-dione]	201	–
O=C(CC(=O)C(F)(F)F)Nc1ncnc2c1c(-c1ccc(Oc3c(F)c(F)cc(F)c3F)cc1F)nn2C1CCCNC1 (stereo not shown) [Compound 66, 4,4,4-trifluoro-N-(3-(2-fluoro-4-(2,3,5,6-tetrafluorophenoxy)phenyl)-1-(piperidin-3-yl)-1H-pyrazolo[3,4-d]pyrimidin-4-yl)-3-oxobutanamide]	729	–
C=C(C)C(=O)N1CC[C@@H](n2nc(-c3ccc(Oc4c(F)c(F)cc(F)c4F)cc3F)c3c(N)ncnc32)C1 [Compound 105, 1-((R)-3-(4-amino-3-(2-fluoro-4-(2,3,5,6-tetrafluorophenoxy)phenyl)-1H-pyrazolo[3,4-d]pyrimidin-1-yl)pyrrolidin-1-yl)-2-methylprop-2-en-1-one]	589	–
Nc1ncnc2c1c(-c1ccc(C(=O)c3cccc(F)c3)cc1F)nn2C1CCCN(C(=O)C2CO2)C1 (stereo not shown) [Compound 9, (3-(4-amino-3-(2-fluoro-4-(3-fluorobenzoyl)phenyl)-1H-pyrazolo[3,4-d]pyrimidin-1-yl)piperidin-1-yl)(oxiran-2-yl)methanone]	83	–
C=CC(=O)N[C@H]1CC[C@@H](n2nc(-c3ccc(Oc4c(F)c(F)cc(F)c4F)cc3F)c3c(N)ncnc32)C1 [Compound 26, N-((1s,3r)-3-(4-amino-3-(2-fluoro-4-(2,3,5,6-tetrafluorophenoxy)phenyl)-1H-pyrazolo[3,4-d]pyrimidin-1-yl)cyclopentyl)acrylamide]	34	–
C=CC(=O)N1CC[C@@H](n2nc(-c3ccc(Oc4ccnc5cc(OC)c(OC)cc45)cc3F)c3c(N)ncnc32)C1 [Compound 89, 1-((R)-3-(4-amino-3-(4-(6,7-dimethoxyquinolin-4-yloxy)-2-fluorophenyl)-1H-pyrazolo[3,4-d]pyrimidin-1-yl)pyrrolidin-1-yl)prop-2-en-1-one]	25	–
Nc1ncnc2c1c(-c1ccc(Oc3c(F)c(F)cc(F)c3F)cc1F)nn2C1CCCN(C(=O)c2c[nH]cn2)C1 (stereo not shown) [Compound 59, (3-(4-amino-3-(2-fluoro-4-(2,3,5,6-tetrafluorophenoxy)phenyl)-1H-pyrazolo[3,4-d]pyrimidin-1-yl)piperidin-1-yl)(1H-imidazol-4-yl)methanone]	174	–
